The record followed here is patent US20260078099A1, “COMPOUND, PREPARATION METHOD THEREOF, AND LIPID NANOPARTICLE AND PHARMACEUTICAL COMPOSITION” (priority 2023, published 2026).

Data set [1] relates to mice. As to the kind of experiment: Bioluminescent study, intramuscular injection of F-luc mRNA LNPs. It is filed as in vivo. The conditions noted are these: F-luc luminescence flux normalized to MC3; 0.25 mg/kg intramuscular, mice n=3, 6-hour time point. The method, then:
The efficacy of nanoparticle compositions was evaluated using bioluminescent studies. A dose of 0.25 mg/kg (mpk) of the formulation was administered to mice (n=3) via intramuscular injection, and bioluminescence was measured at a 6-hour time point. The test lipid nanoparticles from the MC3 formulation were evaluated, and in some cases, controls (e.g., PBS controls) were assessed for comparison.
The characteristics of the test lipid nanoparticles measured from the test groups, including F-luc luminescence intensity, are listed in the table below.

Data set [2] in a line: LNP size and PDI by dynamic light scattering. The class given is physicochemical. To be noted: mRNA LNP, cationic lipid/DSPC/cholesterol/PEG-lipid 50:10:38.5:1.5. Here is the method:
(§1) In summary, the cationic lipid described herein, DSPC, cholesterol, and PEG-lipid were dissolved in ethanol at a molar ratio of 50:10:38.5:1.5 and diluted in 10 mM to 50 mM citrate buffer at pH 4 with mRNA. Using a microfluidic device, the lipid ethanol solution was mixed with mRNA aqueous solution at a volume ratio of 1:3 and a total flow rate ranging from 6-30 mL/min, preparing LNPs with a total lipid to mRNA weight ratio of approximately 10:1 to 30:1. Ethanol was removed by dialysis and replaced with PBS. Finally, the lipid nanoparticles were filtered through a 0.22 μm sterile filter.
(§2) The size of lipid nanoparticles was measured by dynamic light scattering using a Malvern Zetasizer Nano ZS (Malvern, UK) with a 90° scattering detection mode. The encapsulation efficiency of lipid nanoparticles was determined using the Quant-it Ribogreen RNA Quantitation Kit (Thermo Fisher Scientific, UK) according to the manufacturer's instructions. The apparent pKa of LNP formulations correlates with the delivery efficiency of nucleic acids by LNPs in vivo. The apparent pKa ranges from approximately 5 to 7. An analysis based on fluorescence from 2-(p-tolylamino)-6-naphthalenesulfonic acid (TNS) was used to determine the apparent pKa of formulations. As described above, LNP formulations containing cationic lipid/DSPC/cholesterol/DMG-PEG (50/10/38.5/1.5 mol %) in PBS were prepared. A 300 μM stock solution of TNS in distilled water was prepared. LNP formulations were diluted to 0.1 mg/mL total lipid in 3 mL of buffer solution containing 50 mM sodium citrate, 50 mM sodium phosphate, 50 mM sodium borate, and 30 mM sodium chloride (pH ranged from 3 to 9). […] S-shaped curve best-fit analysis was applied to the fluorescence data, and the pKa value was measured as the pH value producing half-maximal fluorescence intensity.

The nature of data set [3]: LNP encapsulation efficiency (Quant-it Ribogreen). It is filed as physicochemical. The conditions noted are these: mRNA LNP, cationic lipid/DSPC/cholesterol/PEG-lipid 50:10:38.5:1.5.
Text: Encapsulation Efficiency: The encapsulation efficiency of a therapeutic and/or prophylactic agent refers to the amount of the therapeutic and/or prophylactic agent encapsulated within or otherwise associated with the nanoparticle composition relative to the initial amount provided during preparation. Encapsulation efficiency is desirably high (such as close to 100%). Encapsulation efficiency can be measured, for example, by comparing the amount of therapeutic and/or prophylactic agent in a solution containing the nanoparticle composition before and after disruption of the nanoparticle composition using one or more organic solvents or detergents. Fluorescence can be used to measure the amount of free therapeutic and/or prophylactic agent (e.g., RNA) in solution. For the nanoparticle compositions described herein, the encapsulation efficiency of the therapeutic and/or prophylactic agent may be at least 50%, such as 50%, 55%, 60%, 65%, 70%, 75%, 80%, 85%, 90%, 91%, 92%, 93%, 94%, 95%, 96%, 97%, 98%, 99%, or 100%. In some embodiments, the encapsulation efficiency may be at least 80%. In certain embodiments, the encapsulation efficiency may be at least 90%.
as §1, §2

Data set [4] is described as follows: LNP zeta potential. It is filed as physicochemical. The conditions noted are these: mRNA LNP. The text has this:
Nanoparticle compositions can be characterized by various methods. For example, the morphology and size distribution of nanoparticle compositions can be examined using microscopy (e.g., transmission electron microscopy or scanning electron microscopy). The zeta potential can be measured using dynamic light scattering or potentiometric titration. Dynamic light scattering can also be used to determine particle size. Instruments such as the Zetasizer Nano ZS (Malvern Instruments Ltd., Malvern, Worcestershire, UK) can also be used to measure multiple characteristics of nanoparticle compositions, such as particle size, polydispersity index, and zeta potential.
[…]: The zeta potential of the nanoparticle composition can indicate the electrophoretic potential of the composition. For example, zeta potential may describe the surface charge of the nanoparticle composition. Nanoparticle compositions with relatively low positive or negative charges are generally desirable, as materials with higher charges may interact undesirably with cells, tissues, and other components in the body. In some embodiments, the zeta potential of the nanoparticle composition may be about −10 mV to about +20 mV, about −10 mV to about +15 mV, about −10 mV to about +10 mV, about −10 mV to about +5 mV, about −10 mV to about 0 mV, about −10 mV to about −5 mV, about −5 mV to about +20 mV, about −5 mV to about +15 mV, about −5 mV to about +10 mV, about −5 mV to about +5 mV, about −5 mV to about 0 mV, about 0 mV to about +20 mV, about 0 mV to about +15 mV, about 0 mV to about +10 mV, about 0 mV to about +5 mV, about +5 mV to about +20 mV, about +5 mV to about +15 mV, or about +5 mV to about +10 mV.

Turning to `CCCCCCCCC(C(=O)NCCCCCCCCCC(=O)OC(CCCC)CCCCCC)N(CCCN1CCCC1)C(=O)CCCCCCCCCC(=O)OC(CCCC)CCCCCC` (stereo not drawn) [Compound A3], the “Relative Total flux” value in data set [1] was “C (C: ≥0.1 and <1)”.
For the compound `CCCCCCCC/C=C\CCCCCCCCNC(=O)C(CCCCCCCC)N(CCCCCCCC/C=C\CCCCCCCC)C(=O)CCCN(C)C` (stereo not drawn) [Compound C1], in data set [2], the PDI is 0.108 and the “Size (nm)” value is 60.62 nm. Further, the “Encapsulation efficiency (%)” value in data set [3] amounted to 82.31%. Further, the “Zeta potential (mV)” value in data set [4] is recorded as −9.90 mV. The “Relative Total flux” value in data set [1] was “B (B: ≥1 and <2)”.
For `CCCCCCCCC(CCCCCC)COC(=O)CCCCCNC(=O)C(CCCCC)N(CCCN1CCCC1)C(=O)CCCCCC(=O)OCC(CCCCCC)CCCCCCCC` (stereo not drawn) [Compound A45], in data set [2], the PDI was found to be 0.06 and the “Size (nm)” value is 79.00 nm. Further, the “Encapsulation efficiency (%)” value in data set [3] is on record as 94.62%. Besides, in data set [4], the “Zeta potential (mV)” value is on record as 0.83 mV. Moreover, the “Relative Total flux” value in data set [1] is listed as “A (A: ≥2)”.
In the case of `CCCCCCCCNC(=O)C(CCCCCCCC)N(CCC1CCCN1C)C(=O)CCCCCCC(=O)OC(CCCCCCCC)CCCCCCCC` (stereo not drawn) [Compound A34], in data set [2], the PDI is 0.11 and the “Size (nm)” value is given as 94.21 nm. The “Encapsulation efficiency (%)” value in data set [3] came out at 95.23%. The “Zeta potential (mV)” value in data set [4] amounted to 2.08 mV. The “Relative Total flux” value in data set [1] is on record as “A (A: ≥2)”.
On the same counts, the results for `CCCCCCCCNC(=O)C(CCCC)N(CCCN(C)C)C(=O)CCCCCCC(=O)OC(CCCCCCCC)CCCCCCCC` (stereo not drawn) [Compound A27] are 0.11, 121.37 nm, 95.33%, −3.43 mV and “A (A: ≥2)”.
With `CCCCCCCCC(CCCCCCCC)OC(=O)CCCCCC(=O)N(CCCN(C)C)C(CCCCCCCC)C(=O)NCCCCCC(=O)OCCC12CC3CC(CC(C3)C1)C2` (stereo not drawn) [Compound A48], in data set [2], the PDI was 0.08 and the “Size (nm)” value stood at 64.27 nm. Moreover, in data set [3], the “Encapsulation efficiency (%)” value is given as 94.62%. The “Zeta potential (mV)” value in data set [4] was 0.65 mV. The “Relative Total flux” value in data set [1] is “A (A: ≥2)”.
As for `CCCCCCCCC(CCCCCCCC)OC(=O)CCCCCCC(=O)N(CCCN(C)C)C(CCCCCCCC)C(=O)NCCCCCC(=O)OCCC12CC3CC(CC(C3)C1)C2` (stereo not drawn) [Compound A47], the “Relative Total flux” value in data set [1] was “A (A: ≥2)”.
Same read-out and setting: as for `CCCCC/C=C\C/C=C\CCCCCCCCNC(=O)C(CCCCCCCC)N(CCCCCCCC/C=C\C/C=C\CCCCC)C(=O)CCCN(C)CCO` (stereo not drawn) [Compound C6], the entry is “D (D: <0.1.)”.
The same measure, in the same setting: as for `CCCCCCCCC(C(=O)NCCCCCCCCCC(=O)OC(CCCCCC)CCCCCC)N(CCN(C)CCN(C(=O)CCCCCCCCCC(=O)OC(CCCCCC)CCCCCC)C(CCCCCCCC)C(=O)NCCCCCCCCCC(=O)OC(CCCCCC)CCCCCC)C(=O)CCCCCCCCCC(=O)OC(CCCCCC)CCCCCC` (stereo not drawn) [Compound D6], the entry is “A (A: ≥2)”.
Same read-out and setting: then `CCCCCCCCNC(=O)C(CCCCCCCC)N(CCCN(CC)CCO)C(=O)CCCCCCC(=O)OC(CCCCCCCC)CCCCCCCC` (stereo not drawn) [Compound B28], with “A (A: ≥2)”; and `CCCCCCCCNC(=O)C(CCCCCCCC)N(CCCN(C)CCCO)C(=O)CCCCCCC(=O)OC(CCCCCCCC)CCCCCCCC` (stereo not drawn) [Compound B27], with “B (B: ≥1 and <2)”.
Consider `CCCCCCCCC(C(=O)NCCCCCCCCCC(=O)OCCCCCC)N(CCCN(CO)CO)C(=O)CCCCCCCCCC(=O)OC(CCCCCC)CCCCCC` (stereo not drawn) [Compound B1], for which the “Relative Total flux” value in data set [1] was “A (A: ≥2)”.
The same measure, in the same setting: then `CCCCC/C=C\C/C=C\CCCCCCCCNC(=O)C(CCCCCCCC)N(CCCCCCCC/C=C\C/C=C\CCCCC)C(=O)CCCN(C)C` (stereo not drawn) [Compound C2], with “B (B: ≥1 and <2)”; and `CCCCC/C=C\C/C=C\CCCCCCCC(=O)N(CCCCN1CCCC1)C(CCCCCCCCCCC)C(=O)NCCCCCCCCCCCCCC` (stereo not drawn) [Compound A24], with “C (C: ≥0.1 and <1)”.
Same read-out and setting: as for `CCCCCCCCNC(=O)C(CCCCCCCC)N(CCN(CC)CC)C(=O)CCCCCCC(=O)OC(CCCCCCCC)CCCCCCCC` (stereo not drawn) [Compound A38], the entry is “A (A: ≥2)”; as for `CCCCC/C=C\C/C=C\CCCCCCCC(=O)N(CCCN1CCCC1)C(CCCCCCCCCCC)C(=O)NCCCCCCCCCCCCCC` (stereo not drawn) [Compound A22], “C (C: ≥0.1 and <1)”; as for `CCCCCCCC(C(=O)NCCCCCCCCCC(=O)OC(CCCCCC)CCCCCC)N(CCN(C)CCO)C(=O)CCCCCCCCCC(=O)OC(CCCCCC)CCCCCC` (stereo not drawn) [Compound B9], “A (A: ≥2)”.
As for `CCCCCCCCC(C(=O)NCCCCCCCCCC(=O)OC(CCCCCC)CCCCCC)N(CCCCN1CCN(CCCN(C(=O)CCCCCCCCCC(=O)OC(CCCCCC)CCCCCC)C(CCCCCCCC)C(=O)NCCCCCCCCCC(=O)OC(CCCCCC)CCCCCC)CC1)C(=O)CCCCCCCCCOC(=O)C(CCCCCC)CCCCCC` (stereo not drawn) [Compound D3], in data set [1], the “Relative Total flux” value was “C (C: ≥0.1 and <1)”.
For the compound `CCCCCCCCCCCCCCNC(=O)C(CCCCCCCCCCC)N(CCCCN1CCCC1)C(=O)CCCCCCC(=O)OC(CCCCCCCC)CCCCCCCC` (stereo not drawn) [Compound A25], in data set [1], the “Relative Total flux” value is “D (D: <0.1.)”.
For `CCCCC/C=C\C/C=C\CCCCCCCCNC(=O)C(CCCCCCCC)N(CCCCCCCC/C=C\C/C=C\CCCCC)C(=O)CCCN1CCCC1` (stereo not drawn) [Compound C4], the “Relative Total flux” value in data set [1] is “B (B: ≥1 and <2)”.
For the compound `CCCCCCCCC(CCCCCC)COC(=O)CCCCCNC(=O)C(CCCCC)N(CCCCN(C)C)C(=O)CCCCCC(=O)OCC(CCCCCC)CCCCCCCC` (stereo not drawn) [Compound A44], the “Relative Total flux” value in data set [1] was “B (B: ≥1 and <2)”.
Same read-out and setting: then `CCCCCCCCC(CCCCCC)COC(=O)CCCCCNC(=O)C(CCCCC)N(CCCN(C)C)C(=O)CCCCCC(=O)OCC(CCCCCCCC)CCCCCCCC` (stereo not drawn) [Compound A43], with “A (A: ≥2)”.
`CCCCCCCCNC(=O)C(CCCCCCCC)N(CCCCN1CCCC1)C(=O)CCCCCCC(=O)OC(CCCCCCCC)CCCCCCCC` (stereo not drawn) [Compound A37]: the “Relative Total flux” value in data set [1] is “B (B: ≥1 and <2)”.
On the same count and under the same terms, as for `CCCCC/C=C\C/C=C\CCCCCCCCNC(=O)C(CCCCCCCC)N(CCCCCCCC/C=C\C/C=C\CCCCC)C(=O)CCCN(CCO)CCO` (stereo not drawn) [Compound C7], the entry is “D (D: <0.1.)”.
On the same count and under the same terms, as for `CCCCCCCCNC(=O)C(CCCCCCCC)N(CC1CCCN(C)C1)C(=O)CCCCCCC(=O)OC(CCCCCCCC)CCCCCCCC` (stereo not drawn) [Compound A39], the entry is “A (A: ≥2)”.
